Molecules are shown by their SMILES. Like-named read-outs stand apart in the source and are kept apart here.

Series [1] deals with MRC-5. In words: MTS cytotoxic assay, MRC-5. The series is classed as cell-based. To be noted: Homo sapiens. The source says:
If not indicated otherwise, the cell lines were purchased from the American Type Culture Collection (ATCC). […] K562 is the erythroid-myeloid precursor cell line derived from chronic myeloid leukemia carrying the BCR-ABL hybrid gene. A549, MCF-7, PC-3, 5637, U-2 OS, and MiaPaCa-2 are cells derived from lung, breast, prostate, bladder carcinoma, osteosarcoma, and pancreatic adenocarcinoma, respectively. HEK 293T are transformed human embryonic kidney cells, and L929 (Sigma, St. Louis, MS, USA) are transformed mouse fibroblasts. HCT116, cells from colorectal carcinoma, and their p53 gene knock-out variant (HCT116p53-/-) were purchased from Horizon Discovery. This cell line is a model of human tumors bearing p53 loss-of-function mutations or biallelic deletion of the p53 gene, frequently associated with poor prognosis. The MRC-5 and BJ cells were used as noncancerous cells; more specifically, they are human fibroblasts from the lungs and foreskin, respectively. According to the supplier’s recommendations, all cells were cultured at 37 °C in a 5% CO2 atmosphere and 100% humidity. The culture media used were: DMEM, RPMI 1640, and MEM (according to a cell line); all were supplemented with 5 g L^−1 glucose, 10% fetal calf serum, 2 mM glutamine, 100 U mL^−1 penicillin, 100 µg mL^−1 streptomycin, and NaHCO3. Cells were passaged every two or three days using 0.25% trypsin plus 0.01% EDTA (ethylenediamine tetraacetic acid) in phosphate-buffered saline.
To evaluate compound cytotoxicity, cells were seeded in 384-well microtiter plates in a volume of […]. The next day, aliquots of the tested derivatives were transferred with Echo550 acoustic liquid handler (Labcyte) to obtain dose response curves with dilution factor 4. The experiments were performed in technical duplicates and three or more biological replicates. After 72 h of incubation in a humidified incubator, […] of the MTS/PMS stock solution were pipetted into each well. After another 1–4 h of incubation, the absorbance at 490 nm was measured using an EnVision Multilabel Plate Reader (PerkinElmer).

Series [2] concerns mouse peritoneal cells. In words: Viability of mouse peritoneal primary cells (macrophages), WST-1. Format: cell-based. The following applies: 24 h; for IC50: Mus musculus, Macrophage, WST-1, lowest tested concentration 1 nM, read-out: concentration at which IC50 was reached in mouse macrophages. The procedure: Female mice of the inbred strain C57BL/6, eight to ten weeks old, were purchased from Charles River Deutschland (Sulzfeld, Germany). They were kept in transparent plastic cages in groups of ten. The animals were housed with food and water ad libitum, lighting was set on 6–18 h, and the temperature was set at 22 °C. All protocols were approved by the institutional ethics committee (MSMT15894/2013-310). Animals, killed by cervical dislocation, were intraperitoneally injected with 8 mL of sterile saline. Pooled peritoneal cells collected from mice were washed in sterile saline, re-suspended in the culture medium, and seeded into 96-well microplates in final 100-μL volumes (Costar, Cambridge, MA, USA). The final density of the cells was 0.25 × 10^6 per mL^−1. The cultures were maintained with or without compounds for 24 h at 37 °C with 5% CO2 in a humidified Heraeus incubator in complete RPMI-1640 (Merck-Sigma, St. Louis, MS, USA), which contained 10% heat-inactivated fetal bovine serum, 2 mM of L-glutamine, 50 μg·mL^−1 of gentamicin, and 5 × 10^−5 M of 2-mercaptoethanol (all Merck-Sigma, St. Louis, MS, USA). Compounds (Ob, Cy (cymarin), Hyr, deHyr) were prepared as 100 mM stock solutions in dimethyl sulfoxide (DMSO) with cell culture grade. The next dilution continued immediately before the experiment with the culture medium. To eliminate the influence of DMSO, equal levels of DMSO were added to the experimental groups.
The viability of mouse peritoneal cells was determined using a colorimetric assay based on the cleavage of the tetrazolium salt WST-1 by mitochondrial dehydrogenases in viable cells (Merck-Sigma, St. Louis, MS, USA). The cells were cultured as described above. After 24 h of culture, the WST-1 was added, and the cells were kept in the Heraeus incubator at 37 °C for an additional 3 h. Optical density at 450/690 nm was determined. The cytotoxicity of the tested CGs was expressed as a percentage. The test samples were related to control samples consisting of untreated cells and samples with 100% dead cells evoked by 1% Triton, according to the formula: ((exp. value − control value)/(Triton value − control value)) × 100. All control and experimental variants were run in quadruplicates. The data were analyzed using GraphPad Prism software 6.05 (GraphPad, San Diego, CA, USA). Values were expressed as the mean ± standard error of the mean (SEM).
A general note: Tetrazolium assays rely on reduction of a dye to a coloured formazan, in cell work by metabolically active cells.

Series [3] relates to SH-SY5Y cells. Also on record: method as in PMID 25838173. To be noted: cited from earlier work.
In series [4] the test system is rat vascular smooth muscle cells, endothelial cells, and astrocytes. Set-up: method as in PMID 26067145. The following applies: high concentrations of Ob (3–3000 μM) ref 54; cited from earlier work.
Where [5] appears, read: WST-1, 0.001–100.0 µM, not dose-dependent.

With `CO[C@H]1C[C@H](O[C@H]2CC[C@]3(C=O)[C@H]4CC[C@]5(C)[C@@H](C6=CC(=O)OC6)CC[C@]5(O)[C@@H]4CC[C@]3(O)C2)O[C@H](C)[C@H]1O` [Cy, cymarin], the IC50 in series [1] (MRC5, 72 h) was 26 ± 2.4 nM; in series [2], ≤ 1 nM. Moreover, the “cytotoxicity to mouse macrophages, % of the control” value in series [2] (setting [5]) was “about 60%”.

As to `C[C@]12CC[C@H]3[C@@H](CCC4=C[C@@H](O[C@@H]5OC[C@@H](O)[C@H](O)[C@H]5O)CC[C@@]43C=O)[C@@]1(O)CC[C@@H]2C1=CC(=O)OC1` [deHyr, deglucohyrcanoside], the IC50 in series [1] (MRC5, 72 h) was 77 ± 12 nM; in series [2], ~10 nM. Also, the “viability of mouse macrophages reduced to % of the control” value in series [2] (setting [5]) is listed as 50%.

`C[C@@H]1O[C@@H](O[C@H]2C[C@@H](O)[C@]3(CO)[C@H]4[C@H](O)C[C@]5(C)[C@@H](C6=CC(=O)OC6)CC[C@]5(O)[C@@H]4CC[C@]3(O)C2)[C@H](O)[C@H](O)[C@H]1O` [Ob, ouabain]: the IC50 in series [1] (MRC5, MRC-5 noncancerous lung fibroblasts, MTS, 72 h, read-out: IC50) came to 39 ± 1.6 nM. The “decrease of viability of mouse macrophages compared to the control” value in series [2] (WST-1, independent of concentration 1 nm–100 µM) is 10–20%. In series [2] (up to 100 µM concentration), the “cytotoxicity to mouse macrophages (in words)” value is reported as “did not exhibit significant cytotoxicity”. Moreover, the reduction of viability in series [3] (24 h ref 53) was 40%; in series [3] (48 h ref 53), 10%. Also, in series [4], the “survival of rodent cells (in words)” value is listed as “perfectly survived”.

Turning to `C[C@]12CC[C@H]3[C@@H](CCC4=C[C@@H](O[C@@H]5OC[C@@H](O[C@@H]6O[C@H](CO)[C@@H](O)[C@H](O)[C@H]6O)[C@H](O)[C@H]5O)CC[C@@]43C=O)[C@@]1(O)CC[C@@H]2C1=CC(=O)OC1` [Hyr, (3β)-3-[(4-O-β-D-glucopyranosyl-β-D-xylopyranosyl)oxy]-14-hydroxy-19-oxocarda-4,20(22)-dienolide], the IC50 in series [1] (MRC5, 72 h) was 302 ± 43 nM; in series [2], ~100 nM. Moreover, in series [2] (setting [5]), the “cytotoxicity to mouse macrophages, % of the control” value was “about 60%”.
